Test results taken from patent publication EP0131315A2, “Nasal preparations comprising anticholinergic quaternary ammonium salts” (ISTITUTO DE ANGELI S.p.A., priority 1983, dated 1985).
Several values for one entry are separate records, joined by “and”; a condition that tells them apart may be missing. Equal values may be shown once. Read-outs that look alike come from different tables or passages of the source.

Legend:
[1] = Urinary excretion (bioavailability) after intravenous, oral and nasal administration in the rat; drug in urine determined by muscarinic receptor binding assay; format: in vivo, male Sprague-Dawley rats; conditions: for amount of the compound found in the urine / dose excreted at 6 h / dose excreted at 24 h / dose excreted at 12 h: 2 mg/rat; for dose excreted at 6 h / dose excreted at 24 h / dose excreted at 12 h / bioavailability: urine, 2 mg; for dose excreted at 6 h: hours 0-6, mean of 10 rats; for dose excreted at 6 h / dose excreted at 24 h / dose excreted at 12 h: read-out: amount of the compound found in the urine; for dose excreted at 12 h: hours 6-12, mean of 10 rats
Description: As a representative drug of this class of compounds N-cyclopropylmethylscopolamine bromide was employed in the method and in the compositions according to the present invention. The bioavailability of this compound after administration by nasal and oral route has been examined and then compared by the following general method. The investigated drug was administered in equal doses by the nasal, oral and intravenous route. 6, 12 and 24 hours after administration the quantitative excretion into the urine for any of the routes of administration was studied. The total amount of the drug excreted during the investigated time intervals was expressed as percentage of the intravenously eliminated amount, considering the latter value as an equivalent for 100% bioavailability.
In detail the following studies have been carried out. For each experiment 10 male Sprague-Dawley rats, weighing 280+ 20g have been used. For the i.v. administration rats fasted for 18 hours were anaesthetized by intraperitoneal sodium pentobarbital solution 2 ml/kg corresponding to 60 mg/kg/rat. A 4% solution of the drug in buffered saline (pH=7.4) was injected into the femoral vein ([…] corresponding to 2 mg of the active ingredient). For the oral administration 18 hours fasted and conscious rats received an 0.2% solution of the drug in saline by means of a stomach tube (1 ml/rat corresponding to 2 mg of the active principle). For the nasal administration the investigated compounds, for example N-cyclopropylmethyl scopolamine bromide, was administered to 18 hours fasted and as above described anaesthetized rats at a dose of 2 mg/rat.
(§1) This dose corresponds either to 25µl of saline (4% solution) or 5 mg of a 20% gel introduced into both nasal cavities by means of micropipette. After the administration by any route the animals were transfered into metabolic cages and received 3 ml of water by stomach tube. The urine was collected 6,12 and 24 hours after administration and the excreted drug was determined with the following original method which is based on the binding affinity of the drugs to their pharmacological receptors. […] It follows from this that knowing the affinity of the drugs it is possible to assay the concentration of the drugs in biological fluids. For this a suitable in vitro receptor preparation and a radio ligand that can bind specifically to the receptor and can be displaced by the test compound is needed. In the present invention tritiated N-methyl- scopolamine (^3H-NMS) in a final concentration of 3.10^-10M that occupies 50% of the muscarinic receptors was employed. As in vitro receptor preparation we used a homogenate from rat cerebral cortex diluted 1:3000 in 20 mM HEPES, 100 mM NaCl and 10 mM MgCl2 (pH 7.4). After incubation of ^3H-NMS with the receptor preparation receptor bound ligand was separated from free ligand by centrifugation and the amountof the receptor bound ligand was measured as radioactivity (dpm) in the pellet.

[2] = test system: muscarinic receptor of cerebral cortex; test: Displacement of 3H-NMS from the muscarinic receptor (standard curve, Fig. 1); format: binding; conditions: rat cerebral cortex homogenate, 3H-NMS 3.10^-10M, increasing concentrations
Description: as §1, with “pellet. […]” for “pellet.”

C[N+]1(CC2CC2)C2CC(OC(=O)C(CO)c3ccccc3)CC1C1OC12 (centres unmarked) [N-cyclopropylmethylscopolamine bromide]
PERCENT URINARY EXCRETION BY OTHER ROUTES RELATIVE TO I.V. ADMINISTRATION ([1]; I.V., hours 0-6, rat (relative to total 0-24 h i.v. excretion)): 88.01% | PERCENT URINARY EXCRETION BY OTHER ROUTES RELATIVE TO I.V. ADMINISTRATION ([1]; I.V., hours 0-24, rat (reference = 100)): 100.00% | PERCENT URINARY EXCRETION BY OTHER ROUTES RELATIVE TO I.V. ADMINISTRATION ([1]; I.V., hours 6-12, rat): 8.45% | PERCENT URINARY EXCRETION BY OTHER ROUTES RELATIVE TO I.V. ADMINISTRATION ([1]; I.V., hours 12-24, rat): 3.54% | PERCENT URINARY EXCRETION BY OTHER ROUTES RELATIVE TO I.V. ADMINISTRATION ([1]; NASAL GEL, hours 0-6, rat): 9.01% | PERCENT URINARY EXCRETION BY OTHER ROUTES RELATIVE TO I.V. ADMINISTRATION ([1]; NASAL GEL, hours 0-24, rat): 22.85% | PERCENT URINARY EXCRETION BY OTHER ROUTES RELATIVE TO I.V. ADMINISTRATION ([1]; NASAL GEL, hours 6-12, rat): 8.90% | PERCENT URINARY EXCRETION BY OTHER ROUTES RELATIVE TO I.V. ADMINISTRATION ([1]; NASAL GEL, hours 12-24, rat): 4.94% | PERCENT URINARY EXCRETION BY OTHER ROUTES RELATIVE TO I.V. ADMINISTRATION ([1]; NASAL SOLUTION, hours 0-6, rat): 21.23% | PERCENT URINARY EXCRETION BY OTHER ROUTES RELATIVE TO I.V. ADMINISTRATION ([1]; NASAL SOLUTION, hours 0-24, rat): 23.00% | PERCENT URINARY EXCRETION BY OTHER ROUTES RELATIVE TO I.V. ADMINISTRATION ([1]; NASAL SOLUTION, hours 6-12, rat): 1.43% | PERCENT URINARY EXCRETION BY OTHER ROUTES RELATIVE TO I.V. ADMINISTRATION ([1]; NASAL SOLUTION, hours 12-24, rat): 0.34% | PERCENT URINARY EXCRETION BY OTHER ROUTES RELATIVE TO I.V. ADMINISTRATION ([1]; OS, hours 0-6, rat): 1.02% | PERCENT URINARY EXCRETION BY OTHER ROUTES RELATIVE TO I.V. ADMINISTRATION ([1]; OS, hours 0-24, rat): 1.40% | PERCENT URINARY EXCRETION BY OTHER ROUTES RELATIVE TO I.V. ADMINISTRATION ([1]; OS, hours 6-12, rat): 0.30% | PERCENT URINARY EXCRETION BY OTHER ROUTES RELATIVE TO I.V. ADMINISTRATION ([1]; OS, hours 12-24, rat): 0.08% | release profile from urinary excretion ([1]; nasal gel, excretion nearly constant 0-6 and 6-12 hours, rat): prolonged release | absorption after nasal administration as compared to the per oral form ([1]; nasal, both by solution and in the form of gel, rat): 16 times | amount of the compound found in the urine ([1]; nasal, gel, hours 0-24, individual rats, 1440 min): 5.26 percentage of the total administered dose and 11.19 percentage of the total administered dose and 5.28 percentage of the total administered dose and 5.19 percentage of the total administered dose and 8.40 percentage of the total administered dose and 6.94 percentage of the total administered dose | amount of the compound found in the urine ([1]; nasal, gel, hours 6-12, individual rats, 720 min): 2.00 percentage of the total administered dose and 4.58 percentage of the total administered dose and 1.63 percentage of the total administered dose and 2.17 percentage of the total administered dose and 3.24 percentage of the total administered dose and 2.90 percentage of the total administered dose and 1.53 percentage of the total administered dose | amount of the compound found in the urine ([1]; nasal, gel, hours 12-24, individual rats, 1440 min): 1.19 percentage of the total administered dose and 1.9 percentage of the total administered dose and 2.0 percentage of the total administered dose and 0.63 percentage of the total administered dose and 2.04 percentage of the total administered dose and 1.18 percentage of the total administered dose | amount of the compound found in the urine ([1]; nasal, solution, hours 0-6, individual rats, 360 min): 4.12 percentage of the total administered dose and 6.25 percentage of the total administered dose and 5.53 percentage of the total administered dose and 8.86 percentage of the total administered dose and 2.93 percentage of the total administered dose and 2.68 percentage of the total administered dose and 4.82 percentage of the total administered dose and 11.42 percentage of the total administered dose and 5.17 percentage of the total administered dose and 4.55 percentage of the total administered dose | amount of the compound found in the urine ([1]; nasal, solution, hours 0-24, individual rats, 1440 min): 4.52 percentage of the total administered dose and 6.59 percentage of the total administered dose and 5.75 percentage of the total administered dose and 9.23 percentage of the total administered dose and 3.17 percentage of the total administered dose and 3.11 percentage of the total administered dose and 5.55 percentage of the total administered dose and 11.88 percentage of the total administered dose and 6.12 percentage of the total administered dose and 5.07 percentage of the total administered dose | amount of the compound found in the urine ([1]; nasal, solution, hours 6-12, individual rats, 720 min): 0.33 percentage of the total administered dose and 0.25 percentage of the total administered dose and 0.13 percentage of the total administered dose and 0.23 percentage of the total administered dose and 0.19 percentage of the total administered dose and 0.39 percentage of the total administered dose and 0.65 percentage of the total administered dose and 0.28 percentage of the total administered dose and 0.86 percentage of the total administered dose and 0.44 percentage of the total administered dose | dose excreted at 6 h ([1]; rat, nasal, gel): 2.39% | dose excreted at 24 h ([1]; rat, nasal, gel, hours 0-24, mean of 10 rats): 6.06% | dose excreted at 12 h ([1]; rat, nasal, gel): 2.36% | dose excreted at 24 h ([1]; rat, nasal, gel, hours 12-24, mean of 10 rats): 1.31% | dose excreted at 6 h ([1]; rat, nasal, solution): 5.63% | dose excreted at 24 h ([1]; rat, nasal, solution, hours 0-24, mean of 10 rats): 6.1% | dose excreted at 12 h ([1]; rat, nasal, solution): 0.38% | dose excreted at 24 h ([1]; rat, nasal, solution, hours 12-24, mean of 10 rats): 0.09% | dose excreted at 6 h ([1]; rat, iv, intravenous): 23.2% | dose excreted at 24 h ([1]; rat, iv, intravenous, hours 0-24, individual rats): 31% | dose excreted at 24 h ([1]; rat, iv, intravenous, hours 0-24, mean of 10 rats): 26.5% | dose excreted at 12 h ([1]; rat, iv, intravenous): 2.24% | dose excreted at 24 h ([1]; rat, iv, intravenous, hours 12-24, mean of 10 rats): 0.94% | dose excreted at 6 h ([1]; rat, po, oral): 0.27% | dose excreted at 24 h ([1]; rat, po, oral, hours 0-24, mean of 10 rats): 0.37% | dose excreted at 12 h ([1]; rat, po, oral): 0.08% | dose excreted at 24 h ([1]; rat, po, oral, hours 12-24, mean of 10 rats): 0.02% | bioavailability ([1]; after oral administration, rat, read-out: bioavailability): 1.4% | bioavailability ([1]; nasal route, both galenic formulations, solution and gel, rat, read-out: absolute bioavailability): 23% | ability to displace 3H-NMS from the muscarinic receptor [2]: inhibit the specific binding between ^3H-NMS and receptor in a dose dependent manner
